Assay results taken from US8623862B2, “Derivatives of N-[(1H-pyrazol-1-yl)aryl]-1H-indole or 1H-indazole-3-carboxamide, preparation thereof and applications thereof in therapeutics” (Sanofi, priority 2011, dated 2014).
Where a name gives a salt, the structure may show the parent alone. Read-outs that look alike come from different tables or passages of the source.

Columns and labels:
platelet aggregation [1] = experiment: Inhibition of platelet aggregation ex vivo (rat blood); assay type: in vivo; conditions: for inhibition at 10 mg/kg: po, read-out: Inhibition of platelet aggregation ex vivo (rat blood) in %, Gavage (oral) 10 mg/kg
Description: Inhibition of Platelet Aggregation Ex Vivo (Rat Blood)
Male rats of the Sprague-Dawley strain, weighing 250-300 g, are used at a rate of 6 animals per batch. Each test compound is diluted in a solution of glucose-containing water (glucose 5%) containing 5% of cremophore and 3% of glycofurol.
The compounds according to the invention are administered by stomach tube (10 ml/kg at 1 mg/ml) two hours before taking the sample or by infusion (1 ml/kg at 10 mg/ml) two hours before taking the sample.
The platelet-rich plasma (PRP) is obtained by centrifugation of the blood at 300 g for 5 minutes, and the measurements of platelet aggregation are performed as described above.
The results are calculated using the area under the curve of absorbance measured for 6 minutes, and expressed as percentage (%) of inhibition.

platelet aggregation [2] = experiment: Inhibition of platelet aggregation in vitro (rat blood); assay type: cell-based;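 for Inhibition of platelet aggregation in vitro (rat blood) in μM: aggregation induced by ADP added as 4 µL of a 250 µM solution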
Outline: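 Platelet-rich plasma from male Sprague-Dawley rats (250-300 g), prepared by centrifugation at 300 g for 5 minutes. Aggregation measured at 37° C in an aggregometer. Percentage inhibition derived from area under the absorbance curve over 6 minutes.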

[3] = rat platelet-rich plasma, ADP-induced aggregation, area under the curve of absorbance for 6 minutes, read-out: Inhibition of platelet aggregation in vitro (rat blood);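 for Inhibition of platelet aggregation in vitro (rat blood) in μM: aggregation induced by ADP added as 4 µL of a 250 µM solution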
[4] = Rattus norvegicus, Platelet, 2 h
[5] = Rattus norvegicus, Platelet, 0.1 h, read-out: Inhibition of platelet aggregation in vitro (rat blood) in μM
[6] = rat blood, in vitro, read-out: Inhibition of platelet aggregation in vitro (rat blood);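 for Inhibition of platelet aggregation in vitro (rat blood) in μM: aggregation induced by ADP added as 4 µL of a 250 µM solution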
[7] = 0.1 h, rat platelet-rich plasma, ADP-induced aggregation, area under the curve of absorbance for 6 minutes, read-out: Inhibition of platelet aggregation in vitro (rat blood);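 for Inhibition of platelet aggregation in vitro (rat blood) in μM: aggregation induced by ADP added as 4 µL of a 250 µM solution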

Compound | IC50 (platelet aggregation [2]; [3]) | IC50 (platelet aggregation [2]; [6]) | other results
CCCC(=O)c1cnn(-c2ccc(NC(=O)c3cn(CC(=O)N4CCN(C)CC4)c4ccc(Cl)cc34)nn2)c1C [Compound 28, N-[6-(4-Butyryl-5-methyl-1H-pyrazol-1-yl)pyridazin-3-yl]-5-chloro-1-[2-(4-methylpiperazin-1-yl)-2-oxoethyl]-1H-indole-3-carboxamide hydrochloride] |  |  | inhibition at 3 mg/kg (platelet aggregation [1]; Rattus norvegicus, Platelet, iv, 2 h, read-out: Inhibition of platelet aggregation ex vivo (rat blood) in %, Infusion (Intravenous) 3 mg/kg): 79%; inhibition at 10 mg/kg (platelet aggregation [1]; [4]): 73.5%; IC50 (platelet aggregation [2]; [5]): 0.06 µM
CCCC(=O)c1cnn(-c2ccc(NC(=O)c3cn(CC(=O)N4CCN(CCOC)CC4)c4ccc(Cl)cc34)nn2)c1C [Compound 29, N-[6-(4-Butyryl-5-methyl-1H-pyrazol-1-yl)pyridazin-3-yl]-5-chloro-1-{2-[4-(2-methoxyethyl)piperazin-1-yl]-2-oxoethyl}-1H-indole-3-carboxamide hydrochloride] |  |  | inhibition at 1 mg/kg (platelet aggregation [1]; Rattus norvegicus, Platelet, iv, 2 h, read-out: Inhibition of platelet aggregation ex vivo (rat blood) in %, Infusion (Intravenous) 1 mg/kg): 76%; inhibition at 10 mg/kg (platelet aggregation [1]; [4]): 86.3%; IC50 (platelet aggregation [2]; [5]): 0.08 µM
CCCC(=O)c1cnn(-c2ccc(NC(=O)c3cn(CC(=O)N4CCN(Cc5cc(C)on5)CC4)c4ccc(Cl)cc34)cc2)c1C.Cl [Compound 166] |  |  | Inhibition of platelet aggregation ex vivo (rat blood) in %, Gavage (oral) 10 mg/kg (platelet aggregation [1]; rat, gavage (oral), 10 mg/kg, two hours before taking the sample): 72.0%
CCCC(=O)c1cnn(-c2ccc(NC(=O)c3cn(CC(=O)N4CCN(C5COC5)CC4)c4ccc(Cl)cc34)cc2)c1C [Compound 191] |  | 0.16 µM | 
CCCC(=O)c1cnn(-c2ccc(NC(=O)c3cn(CC(=O)N4CCN(C)C(CCOC)C4)c4ccc(Cl)cc34)cc2)c1C (centres unmarked) [Compound 196] |  | 0.23 µM | 
CCCC(=O)c1cnn(-c2ccc(NC(=O)c3cn(CC(=O)N4CCN(CCNC(C)=O)CC4)c4ccc(Cl)cc34)cc2)c1C [Compound 197] |  | 0.25 µM | 
CCCC(=O)c1cnn(-c2ccc(NC(=O)c3cn(CC(=O)N4CCN(CC(N)=O)CC4)c4ccc(Cl)cc34)cc2)c1C [Compound 199] |  | 0.27 µM | 
CCCC(=O)c1cnn(-c2ccc(NC(=O)c3cn(CC(=O)N(C)CCOC)c4ccc(Cl)cc34)cc2)c1C [Compound 200] |  | 0.48 µM | 
CCCC(=O)c1cnn(-c2ccc(NC(=O)c3cn(CC(=O)N4CCN(C5CCC5)CC4)c4ccc(Cl)cc34)cc2)c1C [Compound 201] |  | 0.65 µM | 
CCCC(=O)c1cnn(-c2ccc(NC(=O)c3cn(CC(=O)N4CCN(CC(O)C(F)(F)F)CC4)c4ccc(Cl)cc34)cc2)c1C (centres unmarked) [Compound 209] |  | 0.42 µM | 
CC(=O)c1cnn(-c2ccc(NC(=O)c3cn(CC(=O)N4CCN(C)CC4)c4ccc(Cl)cc34)cc2)c1C [Compound 216] |  | 0.73 µM | 
CCC(=O)c1cnn(-c2ccc(NC(=O)c3cn(CC(=O)N4CCN(C)CC4)c4ccc(Cl)cc34)cc2)c1C [Compound 217] |  | 0.6 µM | 
CCOC(=O)c1cnn(-c2ccc(NC(=O)c3cn(CC(=O)N4CCN(C)CC4)c4ccc(Cl)cc34)cc2)c1C [Compound 218] |  | 0.56 µM | 
CCCC(=O)c1cnn(-c2ccc(NC(=O)c3cn(CC(=O)N4CCNC(C)C4)c4ccc(C)cc34)cc2)c1C (centres unmarked) [Compound 242, N-[4-(4-Butyryl-5-methyl-1H-pyrazol-1-yl)phenyl]-5-methyl-1-[2-(3-methylpiperazin-1-yl)-2-oxoethyl]-1H-indole-3-carboxamide hydrochloride] |  |  | IC50 (platelet aggregation [2]; [7]): 0.51 µM
CCCC(=O)c1cnn(-c2ccc(NC(=O)c3cn(CC(=O)N4CCNCC4)c4ccc(C)cc34)cc2)c1C [Compound 243] | 0.54 µM |  | 
CCCC(=O)c1cnn(-c2ccc(NC(=O)c3cn(CC(=O)NC4CCNC4)c4ccc(C)cc34)cc2)c1C (centres unmarked) [Compound 245] | 0.53 µM |  | 
CCCC(=O)c1cnn(-c2ccc(NC(=O)c3cn(CC(=O)N4CC5CCNC5C4)c4ccc(C)cc34)cc2)c1C (centres unmarked) [Compound 246] | 0.85 µM |  | 
CCCC(=O)c1cnn(-c2ccc(NC(=O)c3cn(CC(=O)N4CCCC(NC)C4)c4ccc(C)cc34)cc2)c1C (centres unmarked) [Compound 251] | 0.54 µM |  | 
CCCC(=O)c1cnn(-c2ccc(NC(=O)c3cn(CC(=O)N4CC5CNCC5C4)c4ccc(C)cc34)cc2)c1C (centres unmarked) [Compound 255] | 0.18 µM |  | 
CCCC(=O)c1cnn(-c2ccc(NC(=O)c3cn(CC(=O)N4CCNCC4)c4ccc(Cl)cc34)cc2)c1C [Compound 256] | 0.23 µM |  | 
CCCC(=O)c1cnn(-c2ccc(NC(=O)c3cn(CC(=O)N4CCNCC4C)c4ccc(Cl)cc34)cc2)c1C (centres unmarked) [Compound 258] | 0.3 µM |  | 
CCCC(=O)c1cnn(-c2ccc(NC(=O)c3cn(CC(=O)N4CC(C)N(C)C(C)C4)c4ccc(C)cc34)cc2)c1C (centres unmarked) [Compound 263] | 0.42 µM |  | 
CCCC(=O)c1cnn(-c2ccc(NC(=O)c3cn(CC(=O)N4CC5CC4CN5C)c4ccc(C)cc34)cc2)c1C (centres unmarked) [Compound 264] | 0.56 µM |  | 
CCCC(=O)c1cnn(-c2ccc(NC(=O)c3cn(CC(=O)N4CC5CCN(C)C5C4)c4ccc(C)cc34)cc2)c1C (centres unmarked) [Compound 265] | 0.79 µM |  | 
CCCC(=O)c1cnn(-c2ccc(NC(=O)c3cn(CC(=O)NC4CCCN(C)C4)c4ccc(C)cc34)cc2)c1C (centres unmarked) [Compound 267] |  |  | IC50 (platelet aggregation [2]; [7]): 0.45 µM

Continued, in another order:

IC50 (platelet aggregation [2]; [3]) | IC50 (platelet aggregation [2]; [6]) | Compound | other results
9.6 µM |  | CCCC(=O)c1cnn(-c2ccc(NC(=O)c3cn(CC(=O)O)c4ccc(C)cc34)cc2)c1C [Compound 11] | Inhibition of platelet aggregation ex vivo (rat blood) in %, Infusion (Intravenous) 10 mg/kg (platelet aggregation [1]; rat, infusion (intravenous), 10 mg/kg, two hours before taking the sample): 40.7%
 | 0.27 µM | CCCC(=O)c1cnn(-c2ccc(NC(=O)c3cn(CC(=O)N4CC5CCC(C4)N5C)c4ccc(Cl)cc34)cc2)c1C [Compound 192] | 
 | 0.41 µM | CCCC(=O)c1cnn(-c2ccc(NC(=O)c3cn(CC(=O)N4CCN(CC(=O)N5CCCC5)CC4)c4ccc(Cl)cc34)cc2)c1C [Compound 198] | 
 | 0.36 µM | CCCC(=O)c1cnn(-c2ccc(NC(=O)c3cn(CC(=O)N4CCN(C)CC4)c4ccc(C(F)(F)F)cc34)cc2)c1C [Compound 203] | 
 | 0.83 µM | CCCC(=O)c1cnn(-c2ccc(NC(=O)c3cn(CC(=O)N4CCC(OCCOC)C4)c4ccc(Cl)cc34)cc2)c1C (centres unmarked) [Compound 206] | 
 | 0.37 µM | CCCC(=O)c1cnn(-c2ccc(NC(=O)c3cn(CC(=O)N4CCC(OCCO)C4)c4ccc(Cl)cc34)cc2)c1C (centres unmarked) [Compound 208] | 
 | 0.28 µM | CCCC(=O)c1cnn(-c2ccc(NC(=O)c3cn(CC(=O)N4CCN(CCN(C)C(C)=O)CC4)c4ccc(Cl)cc34)cc2)c1C [Compound 211] | 
 | 0.66 µM | CCCC(=O)c1cnn(-c2ccc(NC(=O)c3cn(CC(=O)N4CC5CC4CN5C4CCC4)c4ccc(Cl)cc34)cc2)c1C (centres unmarked) [Compound 214] | 
 | 0.22 µM | CCCC(=O)c1cnn(-c2ccc(NC(=O)c3cn(CC(=O)N4CCN(C)CC4)c4ccc(Cl)cc34)c(C(N)=O)c2)c1C [Compound 220] | 
0.96 µM |  | CCCC(=O)c1cnn(-c2ccc(NC(=O)c3cn(CC(=O)N4CCCC(N)C4)c4ccc(C)cc34)cc2)c1C (centres unmarked) [Compound 244] | 
0.26 µM |  | CCCC(=O)c1cnn(-c2ccc(NC(=O)c3cn(CC(=O)N4CC(C)NC(C)C4)c4ccc(C)cc34)cc2)c1C (centres unmarked) [Compound 247] | 
0.32 µM |  | CCCC(=O)c1cnn(-c2ccc(NC(=O)c3cn(CC(=O)N4CCC(NC)CC4)c4ccc(C)cc34)cc2)c1C [Compound 248] | 
0.24 µM |  | CCCC(=O)c1cnn(-c2ccc(NC(=O)c3cn(CC(=O)N4CCNC(CO)C4)c4ccc(C)cc34)cc2)c1C (centres unmarked) [Compound 249] | 
0.61 µM |  | CCCC(=O)c1cnn(-c2ccc(NC(=O)c3cn(CC(=O)N4CCC(NC)C4)c4ccc(C)cc34)cc2)c1C (centres unmarked) [Compound 250] | 
0.4 µM |  | CCCC(=O)c1cnn(-c2ccc(NC(=O)c3cn(CC(=O)N4CCC(N)CC4)c4ccc(C)cc34)cc2)c1C [Compound 252] | 
0.19 µM |  | CCCC(=O)c1cnn(-c2ccc(NC(=O)c3cn(CC(=O)N4CCNCC4CO)c4ccc(C)cc34)cc2)c1C (centres unmarked) [Compound 254] | 
0.46 µM |  | CCCC(=O)c1cnn(-c2ccc(NC(=O)c3cn(CC(=O)N4CCNC(C)C4)c4ccc(Cl)cc34)cc2)c1C (centres unmarked) [Compound 257] | 
0.4 µM |  | CCCC(=O)c1cnn(-c2ccc(NC(=O)c3cn(CC(=O)N4CC5CN(C)CC5C4)c4ccc(C)cc34)cc2)c1C (centres unmarked) [Compound 266] | 
0.24 µM |  | CCCC(=O)c1cnn(-c2ccc(NC(=O)c3cn(CC(=O)N4CCN(C)C(CO)C4)c4ccc(C)cc34)cc2)c1C (centres unmarked) [Compound 268] | 
0.35 µM |  | CCCC(=O)c1cnn(-c2ccc(NC(=O)c3cn(CC(=O)N4CCN(C)C(C)C4)c4ccc(C)cc34)cc2)c1C (centres unmarked) [Compound 269] | 
